These results are taken from ChEMBL document CHEMBL3991944, “Enantiomers of spiro-oxindole compounds and their uses as therapeutic agents” (2013).

In data set [1] the test system is Rattus norvegicus. Briefly: Drug level in rat model of CFA-induced chronic inflammatory pain assessed as high plasma concentration at 200 mg/kg, po […]. To be noted: in vivo. It counts as ADME, organism-based.
Data set [2] relates to Rattus norvegicus. Briefly: Analgesic activity in rat model of chronic constriction injury-induced neuropathic pain assessed as reversal of pain response at 2% (w/v) administered topically as ointment measured upto 1 hr by electrovonfrey anesthesiometry. It counts as functional.
The target in data set [3] is Sodium channel protein type 9 subunit alpha (Homo sapiens) (UniProt Q15858). Particulars: HEK293.
Chain of Sodium channel protein type 9 subunit alpha (Homo sapiens) (Q15858 whole entry, looked up): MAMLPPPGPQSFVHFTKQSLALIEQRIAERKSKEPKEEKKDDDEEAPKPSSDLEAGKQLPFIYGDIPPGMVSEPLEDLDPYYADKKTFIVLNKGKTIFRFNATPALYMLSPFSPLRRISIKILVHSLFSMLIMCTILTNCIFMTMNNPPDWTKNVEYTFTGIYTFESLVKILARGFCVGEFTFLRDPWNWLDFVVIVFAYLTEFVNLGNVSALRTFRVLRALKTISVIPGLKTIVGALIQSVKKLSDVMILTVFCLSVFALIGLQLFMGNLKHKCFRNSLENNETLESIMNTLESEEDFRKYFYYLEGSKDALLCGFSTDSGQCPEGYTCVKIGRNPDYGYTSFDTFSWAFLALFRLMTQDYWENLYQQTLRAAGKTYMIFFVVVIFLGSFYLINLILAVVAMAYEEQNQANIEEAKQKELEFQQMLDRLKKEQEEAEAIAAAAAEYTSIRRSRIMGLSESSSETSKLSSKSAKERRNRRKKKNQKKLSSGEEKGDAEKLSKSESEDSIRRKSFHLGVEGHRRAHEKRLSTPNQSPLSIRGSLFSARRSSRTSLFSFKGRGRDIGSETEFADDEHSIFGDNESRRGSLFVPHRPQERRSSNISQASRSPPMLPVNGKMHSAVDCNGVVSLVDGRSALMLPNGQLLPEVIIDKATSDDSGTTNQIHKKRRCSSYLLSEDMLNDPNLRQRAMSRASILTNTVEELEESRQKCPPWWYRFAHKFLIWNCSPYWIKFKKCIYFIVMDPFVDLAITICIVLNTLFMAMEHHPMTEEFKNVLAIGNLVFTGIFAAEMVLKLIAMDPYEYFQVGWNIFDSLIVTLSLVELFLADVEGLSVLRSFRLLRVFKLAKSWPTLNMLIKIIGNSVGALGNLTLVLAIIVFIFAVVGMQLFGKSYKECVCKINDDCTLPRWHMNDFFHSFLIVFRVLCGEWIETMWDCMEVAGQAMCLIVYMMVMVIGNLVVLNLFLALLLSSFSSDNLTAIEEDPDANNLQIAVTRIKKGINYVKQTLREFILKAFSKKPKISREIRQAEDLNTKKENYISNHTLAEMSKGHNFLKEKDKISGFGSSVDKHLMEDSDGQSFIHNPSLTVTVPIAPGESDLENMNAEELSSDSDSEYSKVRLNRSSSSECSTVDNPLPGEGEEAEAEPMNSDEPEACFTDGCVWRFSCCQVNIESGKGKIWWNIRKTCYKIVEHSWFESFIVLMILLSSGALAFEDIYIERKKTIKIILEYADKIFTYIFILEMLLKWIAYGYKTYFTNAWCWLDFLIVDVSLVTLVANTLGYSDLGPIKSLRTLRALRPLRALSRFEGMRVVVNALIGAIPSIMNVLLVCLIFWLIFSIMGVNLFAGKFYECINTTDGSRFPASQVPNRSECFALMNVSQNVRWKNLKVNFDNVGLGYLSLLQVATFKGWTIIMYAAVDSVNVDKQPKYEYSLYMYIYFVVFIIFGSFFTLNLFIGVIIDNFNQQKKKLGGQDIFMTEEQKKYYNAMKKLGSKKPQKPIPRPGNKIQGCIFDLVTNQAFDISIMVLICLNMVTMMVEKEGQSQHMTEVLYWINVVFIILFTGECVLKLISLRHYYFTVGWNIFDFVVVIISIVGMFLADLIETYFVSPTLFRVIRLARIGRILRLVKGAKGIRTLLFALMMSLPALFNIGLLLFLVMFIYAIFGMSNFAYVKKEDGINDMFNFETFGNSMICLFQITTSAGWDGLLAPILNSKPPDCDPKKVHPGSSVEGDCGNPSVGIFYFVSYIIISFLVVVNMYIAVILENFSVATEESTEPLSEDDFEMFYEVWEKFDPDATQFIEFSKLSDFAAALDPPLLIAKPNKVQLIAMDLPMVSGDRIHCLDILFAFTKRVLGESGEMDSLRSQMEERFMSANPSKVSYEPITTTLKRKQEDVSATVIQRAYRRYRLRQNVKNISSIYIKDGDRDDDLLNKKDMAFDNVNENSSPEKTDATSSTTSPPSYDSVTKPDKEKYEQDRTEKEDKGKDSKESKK
Data set [4] deals with Rattus norvegicus. Briefly: Analgesic activity in rat model of CFA-induced chronic inflammatory pain assessed as reduction in nociceptive threshold at 200 mg/kg, po by Von Frey filament assay. It counts as functional, organism-based.
Data set [5] in a line: Solubility of the compound in propylene glycol. It counts as physicochemical.
Data set [6] is described as follows: Solubility of the compound in 60:40 of labrasol/transcutol. It counts as physicochemical.
The nature of data set [7]: Solubility of the compound in labrasol. It counts as physicochemical.
Data set [8] in a line: Solubility of the compound in PEG 400. It counts as physicochemical.
Data set [9] in a line: Solubility of the compound in 60:40 of labrasol/capryol 90. It counts as physicochemical.
Data set [10] is described as follows: Solubility of the compound in tween 80. It counts as physicochemical.
The nature of data set [11]: Solubility of the compound in 60:40 of labrasol/PEG 400. It counts as physicochemical.
A short description of data set [12]: Solubility of the compound in capryol 90. It counts as physicochemical.
For data set [13], the system named is Homo sapiens. Briefly: Toxicity in human assessed as change in QTc interval at 4 to 8% (w/w) administered topically as ointment for 21 consecutive days during phase-1 clinical trial. To be noted: topical_or_ocular.
In data set [14] the test system is Homo sapiens. Briefly: Toxicity in human assessed as decrease in skin irritation at 4 to 8% (w/w) administered topically as ointment for 21 consecutive days during phase-1 clinical trial. To be noted: topical_or_ocular.
Data set [15] has as its system Homo sapiens. Briefly: Toxicity in human assessed as change in quiescent resting state at 4 to 8% (w/w) administered topically as ointment for 21 consecutive days during phase-1 clinical trial. Particulars: topical_or_ocular.
In data set [16] the test system is Homo sapiens. Briefly: Analgesic activity in human assessed as dental pain relief at 500 mg administered as single dose measured 4 to 12 hrs post dose. It counts as functional.
The test system of data set [17] is Homo sapiens. Briefly: Toxicity in human assessed as serious adverse events at 4 to 8% (w/w) administered topically as ointment for 21 consecutive days during phase-1 clinical trial. To be noted: topical_or_ocular.
In data set [18] the test system is Rattus norvegicus. Briefly: Analgesic activity in rat model of CFA-induced chronic inflammatory pain assessed as increase in Von Frey mechanical paw withdrawal threshold at 8% (w/v) administered topically by electrovonfrey anesthesiometry relative to baseline. It counts as functional.
For data set [19], the system named is Homo sapiens. Briefly: Toxicity in human assessed as decrease in skin irritation at 4 to 8% (w/w) administered topically as ointment for 21 consecutive days measured 7 days post last dose during phase-1 clinical trial. To be noted: topical_or_ocular, 168 h.
Data set [20] has as its system Homo sapiens. Briefly: Toxicity in human assessed as mortality at 4 to 8% (w/w) administered topically as ointment for 21 consecutive days during phase-1 clinical trial. To be noted: topical_or_ocular.
The test system of data set [21] is Homo sapiens. Briefly: Toxicity in human assessed as change in physical appearance at 4 to 8% (w/w) administered topically as ointment for 21 consecutive days during phase-1 clinical trial. Particulars: topical_or_ocular.
The subject of data set [22] is Homo sapiens. Briefly: Toxicity in human assessed as change in pulse rate at 4 to 8% (w/w) administered topically as ointment for 21 consecutive days during phase-1 clinical trial. Particulars: topical_or_ocular.
The subject of data set [23] is Homo sapiens. Briefly: Toxicity in human assessed as change in laboratory assessments at 4 to 8% (w/w) administered topically as ointment for 21 consecutive days during phase-1 clinical trial. Particulars: topical_or_ocular.
Data set [24] deals with Homo sapiens. Briefly: Toxicity in human assessed as change in vital signs at 4 to 8% (w/w) administered topically as ointment for 21 consecutive days during phase-1 clinical trial. To be noted: topical_or_ocular.
For data set [25], the species on record is Homo sapiens. Briefly: Toxicity in human assessed as increase in discomfort at 0.1% compound solution for 4 consecutive days during phase-1 clinical trial.

≈ marks a conversion by molar mass, not a printed value. Calls of active or inactive are those of the source.

For the compound `O=C1N(Cc2ccc(C(F)(F)F)o2)c2ccccc2[C@@]12COc1cc3c(cc12)OCO3`, the Drug uptake entry in data set [1] is “Active”. The outcome in data set [2] was inactive. Besides, the Kr in [3] was more than 10 µM. Moreover, the result in data set [4] was Active.
For the compound `O=C1N(Cc2ccc(C(F)(F)F)o2)c2ccccc2C12COc1cc3c(cc12)OCO3` (configuration not stated), the solubility in data set [5] is 2.7 mg/mL (≈ 6.29 mM); in data set [6] it was 74.2 mg/mL (≈ 173 mM); in data set [7] it was 72.5 mg/mL (≈ 169 mM); in data set [8], less than 50 mg/mL; in [9], 44.4 mg/mL (≈ 103 mM); in data set [10], 64 mg/mL (≈ 149 mM). Moreover, the figures for the solubility in data set [11] and in data set [12] were 70.4 mg/mL (≈ 164 mM) and 18.1 mg/mL (≈ 42.2 mM), respectively. Besides, the result in data set [2] was Active. Also, the Kr in data set [3] is more than 10 µM.
For the compound `O=C1N(Cc2ccc(C(F)(F)F)o2)c2ccccc2[C@]12COc1cc3c(cc12)OCO3` [FUNAPIDE], the Activity entry in [13] is recorded as “Non-Toxic”; in data set [14] it was “Non-Toxic”; in [15], “Non-Toxic”; in [17] it was “Non-Toxic”; in data set [18], 45.06 - 45.1%; in data set [19], “Non-Toxic”. Moreover, the Activity entry in data set [20], in data set [21], in [22], in data set [23] and in data set [24] was “Non-Toxic” each time. For the same compound, the solubility in data set [6] is 186 mg/mL (≈ 433 mM); in [7] it was 231 mg/mL (≈ 538 mM); in data set [8] it was more than 55 mg/mL; in data set [9], 191 mg/mL (≈ 445 mM); in data set [10], more than 123 mg/mL; in [11], 182 mg/mL (≈ 424 mM). The compound further registered a solubility in [12] of 96 mg/mL (≈ 224 mM). Further, the outcome in data set [2], in [16] and in data set [4] was Active. In [3], this compound yielded a Kr of more than 10 µM.
As to `CCCCCCCCCCCCOS(=O)(=O)[O-].[Na+]` [SODIUM LAURYL SULFATE], in data set [25], the Activity entry is “Toxic”.
